Structures are written as SMILES. Counter-ions that a name gives are not always drawn.

The values below come from patent publication US5962463A, “Methods of stimulating non-amyloidogenic processing of the amyloid precursor protein” (Massachusetts Institute Of Technology, priority 1997, dated 1999).

In data set [1] the target is human brain serotonin 5HT2 receptor (Homo sapiens, UniProt P28223). The settings on record: for effect on receptor-activated APP release in response to serotonin: 5HT2 transfected cell lines, insert in FIG. 1C.
For data set [2], the target named is T1, human brain serotonin 5HT1C receptor (Homo sapiens, UniProt P28335).
T1 sequence (P28335 33-458): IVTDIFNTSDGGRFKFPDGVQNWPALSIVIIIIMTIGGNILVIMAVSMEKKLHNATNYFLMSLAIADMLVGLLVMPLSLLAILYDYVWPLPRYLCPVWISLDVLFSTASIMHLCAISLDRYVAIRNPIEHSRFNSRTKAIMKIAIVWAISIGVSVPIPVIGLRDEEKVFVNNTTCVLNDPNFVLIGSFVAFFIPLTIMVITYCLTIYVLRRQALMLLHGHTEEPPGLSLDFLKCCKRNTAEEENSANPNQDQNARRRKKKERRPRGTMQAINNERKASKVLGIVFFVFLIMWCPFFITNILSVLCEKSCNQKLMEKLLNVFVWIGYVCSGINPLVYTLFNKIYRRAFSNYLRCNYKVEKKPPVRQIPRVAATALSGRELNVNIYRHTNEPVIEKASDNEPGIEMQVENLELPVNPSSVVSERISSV
The note with it: for effect on receptor-activated APP release in response to dexnorfenfluramine: 5HT1C transfected cell lines, FIG. 3.

The next data set concerns APP release. In words: APP release and cell-associated APP in serotonin receptor transfected 3T3 cells (receptor subtype not stated). In kind it is cell-based, human.
Another data set relates to slices of rat brain. The note with it: 100 μM, incubated in slices of rat brain; cited from earlier work.
In data set [3] the test system is human serotonin-1C surface receptor. In words: Phosphatidylinositol turnover in NIH 3T3 cells expressing the 5HT1C receptor. The settings on record: NIH 3T3 cells expressing 5-HT1C, FIG. 2B. Type of data set: cell-based. An excerpt: FIG. 2A is a graphic representation of concentration dependent APP^S release by NIH 3T3 cells transfected with and expressing the gene for the human serotonin-1C surface receptor in response to activation by dexnorfenfluramine. FIG. 2B is a graphic representation of phosphatidylinositol turnover in the same cells in response to activation by dexnorfenfluramine.
In this instance, the agent interacts with and stimulates the serotonin surface receptor directly. […] Additional evidence is provided by the observation that turnover of phosphatidylinositol is stimulated in these cells by dexnorfenfluramine (FIG. 2B).

Data set [4] has as its system nontransfected human 3T3 cells. As to the kind of experiment: Basal release of APP fragments from wild-type (nontransfected) 3T3 cells. The settings on record: wild-type cell lines, FIGS. 1A and 1C. In kind it is cell-based. An excerpt: Cultured human NIH 3T3 fibroblasts were utilized.
Molecular weight standards were obtained from Amersham.

The conditions of data set [5]: taken orally by an individual; cited from earlier work.
The mark [6] stands for this setting: 10 μM serotonin, 5HT2 transfected cells, FIG. 1D.
[7] abbreviates: stimulation with serotonin, Western blot.

As for `O=C(c1ccc(F)cc1)C1CCN(CCn2c(=O)[nH]c3ccccc3c2=O)CC1` [ketanserin], the “effect on receptor-activated APP release in response to serotonin” value in data set [1] is listed as “blocked”. Further, in data set [2], the “effect on receptor-activated APP release in response to dexnorfenfluramine” value (shortened to “effect … to dexnorfenfluramine”) is on record as “blocked”.
Turning to `CN[C@@H]1C[C@H]2O[C@@](C)([C@@H]1OC)n1c3ccccc3c3c4c(c5c6ccccc6n2c5c31)C(=O)NC4` [staurosporine], the “effect on the serotonin effect on APP release” value in the data set on APP release (serotonin-stimulated transfected cells) is “inhibited”.
As to `CN1CCN2c3ccccc3Cc3ccccc3C2C1` (centres unmarked) [mianserin], the “effect … to dexnorfenfluramine” value in data set [2] is on record as “blocked”.
In the case of `C[C@H](N)Cc1cccc(C(F)(F)F)c1` [dexnorfenfluramine, (+) 1-[3-(trifluoromethyl)-phenyl] propan-2-amine hydrochloride], the “increase in the release of serotonin” value in the data set with slices of rat brain is listed as 6-7 fold. In addition, in data set [2] (5HT1C transfected cells, normalized to vehicle-treated controls), the “increase of basal APP release” value turned out to be 3 fold. In addition, the turnover of phosphatidylinositol entry in data set [3] was “stimulated”.
In the case of `CNc1ccc2oc(C[C@H]3O[C@@]4(CC[C@H]3C)O[C@H]([C@H](C)C(=O)c3ccc[nH]3)[C@H](C)C[C@H]4C)nc2c1C(=O)O` [A23187], in the data set on APP release (calcium ionophore, increased intracellular calcium alone), the “ability to mimic the receptor-mediated stimulation of basal APP release” value is recorded as “failure”.
As to `NCCc1c[nH]c2ccc(O)cc12` [serotonin], in data set [1] (setting [6]), the “time to half-maximal stimulation of APP release” value fell in the range of 30 to 40 min and the “time to maximum stimulation of APP release” value is at most 120 min. In addition, in data set [4], the “stimulation of basal release of APP fragments” value is “not stimulated”. In addition, in the data set on APP release (setting [7]), the “128 kD APP derivative secreted into the culture medium” value is recorded as “increase”, the “abundance of cell-associated 115 kD APP” value was “remained unaffected” and the “abundance of cell-associated 141 kD APP” value was “decreased”.
Take `Cc1nc2sccn2c(=O)c1CCN1CCC(=C(c2ccc(F)cc2)c2ccc(F)cc2)CC1` [ritanserin]: the “effect on receptor-activated APP release in response to serotonin” value in data set [1] is given as “blocked”. In addition, the “effect … to dexnorfenfluramine” value in data set [2] is on record as “blocked”.
As to `CCN[C@@H](C)Cc1cccc(C(F)(F)F)c1` [dexfenfluramine], in data set [5], the “amounts of dexfenfluramine and its de-ethylated metabolite dexnorfenfluramine appearing in the brain” value is “roughly equal amounts”.
